{"source": "ChEMBL document CHEMBL5331133", "about": "“Discovery of AZD4747, a Potent and Selective Inhibitor of Mutant GTPase KRASG12C with Demonstrable CNS Penetration” (J Med Chem, 2023)", "key": {"[1]": {"assay": "Unbound brain-to-plasma concentration ratio in Beagle dog at 170 to 680 microM/Kg, po QD for 15 days and measured 2 hrs last dose", "assay_type": "ADME, organism-based, Canis lupus familiaris", "conditions": "dose 170-680 µM/Kg, time 15 day, read-out: K(p,uu,brain); call rule not given here"}, "[2]": {"assay": "Oral bioavailability in CD-1 mouse at 6.8 microM/Kg", "assay_type": "ADME, organism-based", "conditions": "in vivo, at 6.8 µmol/kg"}, "[3]": {"assay": "Hepatic blood flow in Beagle dog at 1.1 microM/Kg, iv", "assay_type": "ADME, Canis lupus familiaris"}, "[4]": {"assay": "Unbound brain-to-plasma concentration ratio in iv dosed Cynomolgus monkey administered as […] compound by HPLC analysis", "assay_type": "ADME, organism-based, Macaca fascicularis", "conditions": "read-out: K(p,uu,brain)"}, "[5]": {"assay": "Volume of distribution at steady state in Wistar Han rat at 1.1 to 2.3 microM/Kg, iv", "assay_type": "ADME", "conditions": "in vivo, dose 1.1-2.3 µM/Kg, read-out: Vdss"}, "[6]": {"assay": "Half life in Wistar Han rat at 1.1 to 2.3 microM/Kg, iv", "assay_type": "ADME", "conditions": "in vivo, dose 1.1-2.3 µM/Kg"}, "[7]": {"assay": "Hepatic extraction ratio in CD-1 mouse at 2.3 microM/Kg, iv", "assay_type": "ADME", "conditions": "at 2.3 µmol/kg, read-out: ERH"}, "[8]": {"assay": "Oral bioavailability in Wistar Han rat at 2.3 to 6.8 microM/Kg", "assay_type": "ADME, organism-based", "conditions": "in vivo, dose 2.3-6.8 µM/Kg"}, "[9]": {"assay": "Unbound brain-to-plasma concentration ratio in Wistar Han rat at 2.3 microM/Kg, iv and measured after 1 hrs in presence of pretreatment with elacridar for 0.5 hrs", "assay_type": "ADME, organism-based", "conditions": "with elacridar (pretreatment for 0.5 hrs, dose not stated), read-out: K(p,uu,brain)"}, "[10]": {"assay": "Hepatic blood flow in CD-1 mouse at 2.3 microM/Kg, iv", "assay_type": "ADME"}, "[11]": {"assay": "Free drug concentration in athymic nude mouse plasma xenografted with human NCI-H358 cells harboring KRAS G12C mutant at 30 to 100 mg/kg, po and measured upto 24 hrs", "assay_type": "ADME, organism-based", "conditions": "in vivo, dose 30-100 mg/kg"}, "Mus musculus [12]": {"organism": "Mus musculus", "conditions": "dose 10-30 mg/kg, route po, time 6.0 hrs"}, "Mus musculus [13]": {"organism": "Mus musculus", "conditions": "dose 10-30 mg/kg, route po, time 3.0 hrs"}, "[14]": {"assay": "Volume of distribution at steady state in CD-1 mouse at 2.3 microM/Kg, iv", "assay_type": "ADME", "conditions": "in vivo"}, "GTPase KRas": {"biological_target": "GTPase KRas (Homo sapiens, UniProt P01116, G12C)", "sequence (P01116 whole entry G12C)": "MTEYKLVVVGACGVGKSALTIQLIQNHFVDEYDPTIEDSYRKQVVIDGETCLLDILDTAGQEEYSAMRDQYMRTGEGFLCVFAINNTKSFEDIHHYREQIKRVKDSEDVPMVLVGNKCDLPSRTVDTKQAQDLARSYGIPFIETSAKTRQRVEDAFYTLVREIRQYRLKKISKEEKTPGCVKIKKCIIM"}, "in vitro": {"assay": "in vitro", "conditions": "human, liver microsomes, CLH", "description": "Microsomal stability in human liver microsomes assessed as intrinsic clearance"}, "[15]": {"assay": "[…] stability in rat hepatocyte assessed as intrinsic clearance measured per million of cells", "assay_type": "ADME, cell-based", "conditions": "hepatocytes"}, "[16]": {"assay": "Hepatic extraction ratio in Wistar Han rat at 1.1 to 2.3 microM/Kg, iv", "assay_type": "ADME", "conditions": "dose 1.1-2.3 µM/Kg, read-out: ERH"}, "[17]": {"assay": "Observed clearance in Wistar Han rat at 1.1 to 2.3 microM/Kg, iv", "assay_type": "ADME", "conditions": "in vivo, dose 1.1-2.3 µM/Kg"}, "NCI-H358 [18]": {"test_system": "NCI-H358", "assay": "Antiproliferative activity against human NCI-H358 cells harboring KRAS G12C mutant cultured as 3D spheroids assessed as reduction in cell proliferation incubated for 3 days by CellTiter-Glo 3D reagent based assay", "assay_type": "functional", "conditions": "NCI-H358, 72 h"}, "MDR1 and BCRP": {"test_system": "MDR1 and BCRP", "assay": "Efflux ratio of apparent permeability in dog MDCK cells transfected with MDR1 and BCRP at 0.1 uM", "assay_type": "ADME, cell-based, Canis lupus familiaris"}, "[19]": {"assay": "Hepatic extraction ratio in Beagle dog at 1.1 microM/Kg, iv", "assay_type": "ADME, Canis lupus familiaris", "conditions": "at 1.1 µmol/kg, read-out: ERH"}, "[20]": {"assay": "Hepatic blood flow in Wistar Han rat at 1.1 to 2.3 microM/Kg, iv", "assay_type": "ADME", "conditions": "dose 1.1-2.3 µM/Kg"}, "[21]": {"assay": "Oral bioavailability in Beagle dog at 2.3 microM/Kg", "assay_type": "ADME, organism-based, Canis lupus familiaris", "conditions": "in vivo, at 2.3 µmol/kg"}, "[22]": {"assay": "Inhibition of KRAS/MAPK pathway in human NCI-H358 cells harboring KRAS G12C mutant assessed as decrease in p90RSK phosphorylation incubated for 2 hrs by immunofluorescence assay", "assay_type": "cell-based", "conditions": "NCI-H358, 2 h"}, "[23]": {"assay": "Observed clearance in Beagle dog at 1.1 microM/Kg, iv", "assay_type": "ADME, Canis lupus familiaris", "conditions": "in vivo"}, "[24]": {"assay": "Lipophilicity, logD of compound at 7.4", "conditions": "octanol/water, pH 7.4, logD"}, "[25]": {"assay": "Unbound brain-to-plasma concentration ratio in Wistar Han rat at 2.3 microM/Kg, iv and measured after 4 hrs", "assay_type": "ADME, organism-based", "conditions": "read-out: K(p,uu,brain)"}, "[26]": {"assay": "Drug distribution in iv dosed Cynomolgus monkey brain administered as […] compound and assessed as radioactivity and measured 5 to 123 min post dose by PET imaging analysis", "assay_type": "ADME, organism-based, Macaca fascicularis", "conditions": "in vivo, time 5-123 min"}, "[27]": {"assay": "Half life in Beagle dog at 1.1 microM/Kg, iv", "assay_type": "ADME, Canis lupus familiaris", "conditions": "in vivo"}, "A549": {"test_system": "A549", "assay": "Antiproliferative activity against human A549 cells harboring KRAS G12S mutant cultured as 3D spheroids assessed as reduction in cell proliferation incubated for 3 days by CellTiter-Glo 3D reagent based assay", "assay_type": "functional", "conditions": "A549, 72 h"}, "NCI-H358 [28]": {"test_system": "NCI-H358", "assay": "Antiproliferative activity against human NCI-H358 cells harboring KRAS G12C mutant cultured as […] assessed as reduction in cell proliferation incubated for 3 days by CellTiter-Glo reagent based assay", "assay_type": "functional", "conditions": "NCI-H358, 72 h"}, "[29]": {"assay": "Inhibition of KRAS/MAPK pathway in human PC-9 cells harboring wild-type KRAS assessed as decrease in p90RSK phosphorylation incubated for 2 hrs by immunofluorescence assay", "assay_type": "cell-based", "conditions": "PC-9, 2 h"}, "[30]": {"assay": "Volume of distribution at steady state in Beagle dog at 1.1 microM/Kg, iv", "assay_type": "ADME, Canis lupus familiaris", "conditions": "in vivo, read-out: Vdss"}, "[31]": {"assay": "Inhibition of KRAS/MAPK pathway in human Calu-6 cells harboring KRAS Q61K mutant assessed as decrease in p90RSK phosphorylation incubated for 2 hrs by immunofluorescence assay", "assay_type": "cell-based", "conditions": "Calu-6, 2 h"}, "[32]": {"assay": "Toxicity in athymic nude mouse xenografted with human NCI-H358 cells harboring KRAS G12C mutant assessed as body weight change at 10 to 100 mg/kg, po for 21 days", "assay_type": "organism-based", "conditions": "in vivo, 504 h, dose 10-100 mg/kg, time 21 day"}}, "data": [{"smiles": "C=CC(=O)N1CCN2Cc3cc(C#CC)c(-c4c(O)cccc4Cl)c(F)c3OC[C@H]2C1", "values": [{"measurement": "Kp uu at 360 h", "setting": "[1]", "value": 0.7}, {"measurement": "bioavailability", "setting": "[2]", "value": 58, "unit": "%"}, {"measurement": "QH", "setting": "[3]", "value": 55, "unit": "mL/min/kg"}, {"measurement": "Kp uu", "setting": "[4]", "value": 1.6}, {"measurement": "Vd", "setting": "[5]", "value": 1.7, "unit": "L/kg"}, {"measurement": "half-life", "setting": "[6]", "value": 0.56, "unit": "h"}, {"measurement": "hepatic extraction ratio", "setting": "[7]", "value": 0.52}, {"measurement": "bioavailability", "setting": "[8]", "value": 18, "unit": "%"}, {"measurement": "Kp uu at 1 h", "setting": "[9]", "value": 1}, {"measurement": "QH", "setting": "[10]", "value": 152, "unit": "mL/min/kg"}, {"measurement": "Cp(f)", "setting": "[11]", "value": 40, "unit": "nM"}, {"measurement": "inhibition", "setting": "Mus musculus [12]", "value": "Dose-Dependent Effect"}, {"measurement": "inhibition", "setting": "Mus musculus [13]", "value": "Dose-Dependent Effect"}, {"measurement": "Vdss", "setting": "[14]", "value": 2.9, "unit": "L/kg"}, {"measurement": "IC50", "setting": "GTPase KRas", "value": 15, "unit": "nM"}, {"measurement": "microsomal CLint", "setting": "in vitro", "value": 15, "unit": "µL/min/mg"}, {"measurement": "CLH", "setting": "[15]", "value": 34, "unit": "µL/min"}, {"measurement": "hepatic extraction ratio", "setting": "[16]", "value": 0.75}, {"measurement": "clearance", "setting": "[17]", "value": 54, "unit": "mL/min/kg"}, {"measurement": "IC50", "setting": "NCI-H358 [18]", "value": 12, "unit": "nM"}, {"measurement": "efflux ratio at 0.1 µM", "setting": "MDR1 and BCRP", "value": 1.1}, {"measurement": "hepatic extraction ratio", "setting": "[19]", "value": 0.19}, {"measurement": "QH", "setting": "[20]", "value": 72, "unit": "mL/min/kg"}, {"measurement": "bioavailability", "setting": "[21]", "value": 63, "unit": "%"}, {"measurement": "IC50", "setting": "[22]", "value": 65, "unit": "nM"}, {"measurement": "clearance", "setting": "[23]", "value": 10, "unit": "mL/min/kg"}, {"measurement": "logD", "setting": "[24]", "value": 2.9}, {"measurement": "Kp uu at 4 h", "setting": "[25]", "value": 0.11}, {"measurement": "Drug uptake", "setting": "[26]", "value": "Active"}, {"measurement": "half-life", "setting": "[27]", "value": 1.7, "unit": "h"}, {"measurement": "IC50", "setting": "A549", "value": 23300, "unit": "nM"}, {"measurement": "IC50", "setting": "NCI-H358 [28]", "value": 360, "unit": "nM"}, {"measurement": "IC50", "setting": "[29]", "value": "> 30000", "unit": "nM"}, {"measurement": "Vd", "setting": "[30]", "value": 1.2, "unit": "L/kg"}, {"measurement": "IC50", "setting": "[31]", "value": "> 30000", "unit": "nM"}, {"measurement": "Activity", "setting": "[32]", "value": "Non-Toxic"}]}]}
